Usually IC50 stands for the midpoint of a concentration-inhibition curve.

The target of experiment [1] is SSTR2 (Homo sapiens, UniProt P30874, F275A). Briefly: Whole cell binding assay, SSTR2, competition with 125I-Tyr11-SST14, CHO-K1.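 As to all read-outs here: Cell-bound radioactivity in lysed CHO-K1 cells read by scintillation counting, each mutation introduced singly into the WT receptor, at least three independent experiments run in technical triplicate.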 As to conditions: for Emax: CHO-K1, read-out: Span.
SSTR2 (Homo sapiens, UniProt P30874, F275A), sequence (P30874 whole entry F275A): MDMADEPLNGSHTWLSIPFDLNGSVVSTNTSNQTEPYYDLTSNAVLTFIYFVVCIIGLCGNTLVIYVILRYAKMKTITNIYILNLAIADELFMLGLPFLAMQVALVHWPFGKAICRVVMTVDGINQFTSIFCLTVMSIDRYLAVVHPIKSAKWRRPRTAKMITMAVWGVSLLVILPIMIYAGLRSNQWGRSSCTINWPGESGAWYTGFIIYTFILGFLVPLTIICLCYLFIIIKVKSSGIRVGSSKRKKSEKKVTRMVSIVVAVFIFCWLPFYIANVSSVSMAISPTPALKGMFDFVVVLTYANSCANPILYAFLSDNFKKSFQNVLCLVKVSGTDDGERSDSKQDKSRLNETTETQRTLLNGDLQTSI
Method: (§1) For SSTR2 and SSTR4, CHO-K1 cells were cultured in F12 medium with 10% FBS and seeded at a density of 30,000 cells/well in Isoplate-96 plates (PerkinElmer). Twenty-four hours after transfection with the WT or mutant SSTR2/SSTR4, CHO-K1 cells were washed twice and incubated with blocking buffer (F12 supplemented with 25 mM HEPES and 0.1% (w/v) BSA, pH 7.4) for 2 h at 37 °C. […] Following incubation, cells were washed three times with ice-cold PBS and lysed by 50 μL lysis buffer (PBS supplemented with 20 mM Tris-HCl, 1% Triton X-100, pH 7.4). The radioactivity was subsequently counted (counts/min, CPM) in a scintillation counter (MicroBeta[2] Plate Counter, PerkinElmer) using a scintillation cocktail (OptiPhaseSuperMix, PerkinElmer). Data were analyzed by nonlinear regression using GraphPad PRISM 8.
(§2) aMutants represent that all mutations were introduced separately into the WT receptors
and expressed in CHO K1 cells.
(§3) bThe IC50 ratio was shown as IC50(mutant)/IC50(WT), indicating the shift between the WT
(§4) and mutant curves, reflecting the effect of the mutations on ligand binding.
(§5) cData are shown as mean ± S.E.M. form at least three independent experiments
(§6) performed in technical triplicate. One-way ANOVA was performed followed by
(§7) Dunnett’s post-test and compared with WT.
(§8) d The span is defined as the window between the maximal agonists response (Emax) and
(§9) e Sample size; the number of independent experiments performed in technical triplicate.
Experiment [2] concerns the target SSTR2 (Homo sapiens, UniProt P30874, N43A). The experiment is described as above.
Method: as §1, §2
and expressed in CHO K1 cells.
as §3, §4, §5, §6, §7, §8, §9
Experiment [3] addresses T1, SSTR2 (Homo sapiens, UniProt P30874, Q126A). The experiment is described as above. As to conditions: for Emax: CHO-K1, read-out: Span.
Method: as §1, §2
and expressed in CHO K1 cells.
as §3, §4, §5, §6, §7, §8, §9
Experiment [4] addresses T2, SSTR2 (Homo sapiens, UniProt P30874, Y302A). Described as above. As to conditions: CHO-K1, read-out: Span.
Method: as §1, §2
and expressed in CHO K1 cells.
as §3, §4, §5, §6, §7, §8, §9
The target in experiment [5] is T3, SSTR2 (Homo sapiens, UniProt P30874, F272A). Described as above. As to conditions: for Emax: CHO-K1, read-out: Span.
T3 sequence (P30874 whole entry F272A): as the sequence (P30874 whole entry F275A) above, with F272A, A275F counted along it
Method: as §1, §2
and expressed in CHO K1 cells.
as §3, §4, §5, §6, §7, §8, §9
Experiment [6] deals with SSTR2 (Homo sapiens, UniProt P30874, D295A). The experiment is described as above.
SSTR2 (Homo sapiens, UniProt P30874, D295A), sequence (P30874 whole entry D295A): as the sequence (P30874 whole entry F275A) above, with A275F, D295A counted along it
Method: as §1, §2
and expressed in CHO K1 cells.
as §3, §4, §5, §6, §7, §8, §9
Experiment [7] deals with T4, SSTR2 (Homo sapiens, UniProt P30874, D122A). The experiment is described as above. As to conditions: CHO-K1, read-out: Span.
T4 sequence (P30874 whole entry D122A): as the sequence (P30874 whole entry F275A) above, with D122A, A275F counted along it
Method: as §1, §2
and expressed in CHO K1 cells.
as §3, §4, §5, §6, §7, §8, §9
For experiment [8], the target named is T5, SSTR2 (Homo sapiens, UniProt P30874, F294A). Described as above. As to conditions: for Emax: CHO-K1, read-out: Span.
T5 sequence (P30874 whole entry F294A): as the sequence (P30874 whole entry F275A) above, with A275F, F294A counted along it
Method: as §1, §2
and expressed in CHO K1 cells.
as §3, §4, §5, §6, §7, §8, §9
Experiment [9] addresses T6, SSTR2 (Homo sapiens, UniProt P30874, Q102A). The description is as above. As to conditions: for Emax: CHO-K1, read-out: Span.
Method: as §1, §2
and expressed in CHO K1 cells.
as §3, §4, §5, §6, §7, §8, §9
Experiment [10] deals with T7, SSTR2 (Homo sapiens, UniProt P30874). The description is as above. As to conditions: for Emax: CHO-K1, read-out: Span.
T7 sequence (P30874 whole entry): as the sequence (P30874 whole entry F275A) above, with A275F counted along it
Method: as §1, §2
and expressed in CHO K1 cells.
as §3, §4, §5, §6, §7, §8, §9
For experiment [11], the target named is SSTR2 (Homo sapiens, UniProt P30874, S42A). The description is as above.
SSTR2 (Homo sapiens, UniProt P30874, S42A), sequence (P30874 whole entry S42A): as the sequence (P30874 whole entry F275A) above, with S42A, A275F counted along it
Method: as §1, §2
and expressed in CHO K1 cells.
as §3, §4, §5, §6, §7, §8, §9
In experiment [12] the target is T1, SSTR2. Briefly: cAMP accumulation assay (agonist-induced inhibition of forskolin-stimulated cAMP), SSTR2, HEK293F.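 Also: transiently transfected cells exposed to 2 µM forskolin and a ligand concentration series for 40 min at room temperature in IBMX-containing HBSS, then cAMP quantified.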 Set-up: expressed in transfected cells; host or cells: HEK293F. It is filed as cell-based. As to conditions: HEK293F; SSTR2 mutant Q126^3.36A; mean ± SEM; read-out: Span.
Method: (§10) HEK293F cells were transiently transfected with WT or mutant SSTR2/SSTR4 using transfection reagent (PEI MAX 2000, Polysciences) and incubated at 37 °C in 5% CO2. Forty-eight hours after transfection, cells were centrifuged and resuspended in stimulation buffer (Hanks’ balanced salt solution (HBSS) supplemented with 5 mM HEPES, 0.5 mM IBMX and 0.1% (w/v) bovine serum albumin (BSA), pH 7.4) to a density of 200,000 cells/mL and added to 384-well white plates (PerkinElmer, 1000 cells/well). cAMP accumulation was measured by a LANCE Ultra cAMP kit (PerkinElmer) according to the manufacturer’s instructions. In brief, transfected cells were incubated for 40 min in stimulation buffer with 2.5 μL forskolin (SSTR2: 2 μM; SSTR4: 4 μM) and gradient concentration of ligand at RT. The reactions were stopped by addition of lysis buffer containing 5 μL Eu-cAMP tracer and 5 μL ULight-anti-cAMP. Plates were then incubated for 60 min at RT and time-resolved FRET signals were measured at 620 nm and 665 nm by an EnVision multilabel plate reader (PerkinElmer). Data were analyzed in GraphPad PRISM 8 and all values were normalized to the WT for each ligand. All outcomes were repeated at least three times.
(§11) aMutants represent that mutations were introduced separately into the WT receptors and
(§12) transiently expressed in HEK 293F cells.
(§13) bThe EC50 ratio was shown as EC50(mutant)/EC50(WT), indicating the shift between the WT
(§14) and mutant curves, reflecting the effect of the mutations on receptor signaling.
(§15) cData are shown as mean ± S.E.M. from at least three independent experiments
as §6
(§16) Dunnett’s post-test and compared with WT. The P value was defined as: *P<0.05;
as §8, §9
(§17) f Receptor expression level of HEK 293F cells was determined independently by flow
(§18) cytometry with anti-FLAG antibody and shown as per cent compared to the WT.
Experiment [13] addresses T2, SSTR2. The experiment is described as above. The format is cell-based. Also on record: expressed in transfected cells; host or cells: HEK293F. As to conditions: HEK293F; SSTR2 mutant Y302^7.43A; mean ± SEM; read-out: Span.
Method: as §10, §11, §12, §13, §14, §15, §6, §16, §8, §9, §17, §18
Experiment [14] addresses SSTR2 (Homo sapiens, UniProt P30874, T194A). The experiment is described as above. It is filed as cell-based. Set-up: expressed in transfected cells; host or cells: HEK293F. As to conditions: HEK293F; SSTR2 mutant T194^ECL2A; mean ± SEM; read-out: Span.
Method: as §10, §11, §12, §13, §14, §15, §6, §16, §8, §9, §17, §18
Experiment [15] addresses T3, SSTR2. The experiment is described as above. Set-up: expressed in transfected cells; host or cells: HEK293F. As to conditions: HEK293F; SSTR2 mutant F272^6.51A; mean ± SEM; read-out: Span. It is filed as cell-based.
Method: as §10, §11, §12, §13, §14, §15, §6, §16, §8, §9, §17, §18
The target in experiment [16] is T4, SSTR2. The description is as above. It is filed as cell-based. Set-up: expressed in transfected cells; host or cells: HEK293F. As to conditions: HEK293F; SSTR2 mutant D122^3.32A; mean ± SEM; read-out: Span.
Method: as §10, §11, §12, §13, §14, §15, §6, §16, §8, §9, §17, §18
Experiment [17] has as its target T5, SSTR2. Described as above. The format is cell-based. Set-up: expressed in transfected cells; host or cells: HEK293F. As to conditions: HEK293F; SSTR2 mutant F294^7.35A; mean ± SEM; read-out: Span.
Method: as §10, §11, §12, §13, §14, §15, §6, §16, §8, §9, §17, §18
Experiment [18] addresses T6, SSTR2. The experiment is described as above. It is filed as cell-based. Set-up: expressed in transfected cells; host or cells: HEK293F. As to conditions: HEK293F; SSTR2 mutant Q102^2.63A; mean ± SEM; read-out: Span.
Method: as §10, §11, §12, §13, §14, §15, §6, §16, §8, §9, §17, §18
Experiment [19] concerns the target T7, SSTR2. The description is as above. Also on record: expressed in transfected cells; host or cells: HEK293F. It is filed as cell-based. As to conditions: HEK293F; WT SSTR2; window between Emax and vehicle; mean ± SEM; read-out: Span.
Method: as §10, §11, §12, §13, §14, §15, §6, §16, §8, §9, §17, §18
The target in experiment [20] is SSTR2 (Homo sapiens, UniProt P30874, T212A). The experiment is described as above. The format is cell-based. Set-up: expressed in transfected cells; host or cells: HEK293F. As to conditions: HEK293F; SSTR2 mutant T212^5.42A; mean ± SEM; read-out: Span.
SSTR2 (Homo sapiens, UniProt P30874, T212A), sequence (P30874 whole entry T212A): as the sequence (P30874 whole entry F275A) above, with T212A, A275F counted along it
Method: as §10, §11, §12, §13, §14, §15, §6, §16, §8, §9, §17, §18
Experiment [21] has as its target T8, SSTR2 (Homo sapiens, UniProt P30874, F208A).
T8 construct: expressed in transfected cells; host or cells: HEK293F
The experiment is described as above. It is filed as cell-based. As to conditions: HEK293F; SSTR2 mutant F208^5.38A; mean ± SEM; read-out: Span.
Method: as §10, §11, §12, §13, §14, §15, §6, §16, §8, §9, §17, §18

Experiment [22] has as its target T9, SSTR2 (Homo sapiens, UniProt P30874, K291A).
T9 construct: expressed in transfected cells; host or cells: HEK293F
The description is as above. It is filed as cell-based. As to conditions: HEK293F; SSTR2 mutant K291^7.32A; mean ± SEM; read-out: Span.
Method: as §10, §11, §12, §13, §14, §15, §6, §16, §8, §9, §17, §18

Experiment [23] concerns the target T10, SSTR2 (Homo sapiens, UniProt P30874, N276A).
T10 construct: expressed in transfected cells; host or cells: HEK293F
Described as above. The format is cell-based. As to conditions: HEK293F; SSTR2 mutant N276^6.55A; mean ± SEM; read-out: Span.
Method: as §10, §11, §12, §13, §14, §15, §6, §16, §8, §9, §17, §18

Experiment [24] addresses T11, SSTR2 (Homo sapiens, UniProt P30874, S192A).
T11 construct: expressed in transfected cells; host or cells: HEK293F
Described as above. It is filed as cell-based. As to conditions: HEK293F; SSTR2 mutant S192^ECL2A; mean ± SEM; read-out: Span.
Method: as §10, §11, §12, §13, §14, §15, §6, §16, §8, §9, §17, §18

Experiment [25] deals with T12, SSTR2 (Homo sapiens, UniProt P30874, V298A).
T12 construct: expressed in transfected cells; host or cells: HEK293F
T12 sequence (P30874 whole entry V298A): as the sequence (P30874 whole entry F275A) above, with A275F, V298A counted along it
Described as above. It is filed as cell-based. As to conditions: HEK293F; SSTR2 mutant V298^7.39A; mean ± SEM; read-out: Span.
Method: as §10, §11, §12, §13, §14, §15, §6, §16, §8, §9, §17, §18

The target in experiment [26] is T13, SSTR2 (Homo sapiens, UniProt P30874, I284A).
T13 construct: expressed in transfected cells; host or cells: HEK293F
T13 sequence (P30874 whole entry I284A): as the sequence (P30874 whole entry F275A) above, with A275F, I284A counted along it
The description is as above. It is filed as cell-based. As to conditions: HEK293F; SSTR2 mutant I284^ECL3A; mean ± SEM; read-out: Span.
Method: as §10, §11, §12, §13, §14, §15, §6, §16, §8, §9, §17, §18

In experiment [27] the target is T14, SSTR2 (Homo sapiens, UniProt P30874, F294N).
T14 construct: expressed in transfected cells; host or cells: HEK293F
T14 sequence (P30874 whole entry F294N): as the sequence (P30874 whole entry F275A) above, with A275F, F294N counted along it
Described as above. It is filed as cell-based. As to conditions: HEK293F; SSTR2 mutant F294^7.35N; mean ± SEM; read-out: Span.
Method: as §10, §11, §12, §13, §14, §15, §6, §16, §8, §9, §17, §18

Experiment [28] concerns the target T15, SSTR2 (Homo sapiens, UniProt P30874, Y205W).
T15 construct: expressed in transfected cells; host or cells: HEK293F
The description is as above. The format is cell-based. As to conditions: HEK293F; SSTR2 mutant Y205^5.35W; mean ± SEM; read-out: Span.
Method: as §10, §11, §12, §13, §14, §15, §6, §16, §8, §9, §17, §18

Experiment [29] deals with T16, SSTR2 (Homo sapiens, UniProt P30874, P286A).
T16 construct: expressed in transfected cells; host or cells: HEK293F
T16 sequence (P30874 whole entry P286A): as the sequence (P30874 whole entry F275A) above, with A275F, P286A counted along it
The description is as above. The format is cell-based. As to conditions: HEK293F; SSTR2 mutant P286^ECL3A; mean ± SEM; read-out: Span.
Method: as §10, §11, §12, §13, §14, §15, §6, §16, §8, §9, §17, §18

In experiment [30] the target is SSTR2 (Homo sapiens, UniProt P30874, Y205A). Briefly: Whole cell binding assay, SSTR2, competition with 125I-Tyr11-SST14, CHO-K1.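 Also: Cell-bound radioactivity in lysed CHO-K1 cells read by scintillation counting, each mutation introduced singly into the WT receptor, at least three independent experiments run in technical triplicate.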 As to conditions: CHO-K1, read-out: Span.
SSTR2 (Homo sapiens, UniProt P30874, Y205A), sequence (P30874 whole entry Y205A): as the sequence (P30874 whole entry F275A) above, with Y205A, A275F counted along it
Method: as §1, §2
and expressed in CHO K1 cells.
as §3, §4, §5, §6, §7, §8, §9

T2 sequence (P30874 whole entry Y302A): as the sequence (P30874 whole entry F275A) above, with A275F, Y302A counted along it
T1 sequence (P30874 whole entry Q126A): as the sequence (P30874 whole entry F275A) above, with Q126A, A275F counted along it
T6 sequence (P30874 whole entry Q102A): as the sequence (P30874 whole entry F275A) above, with Q102A, A275F counted along it
SSTR2 (Homo sapiens, UniProt P30874, N43A), sequence (P30874 whole entry N43A): as the sequence (P30874 whole entry F275A) above, with N43A, A275F counted along it
T9 sequence (P30874 whole entry K291A): as the sequence (P30874 whole entry F275A) above, with A275F, K291A counted along it
T8 sequence (P30874 whole entry F208A): as the sequence (P30874 whole entry F275A) above, with F208A, A275F counted along it
T11 sequence (P30874 whole entry S192A): as the sequence (P30874 whole entry F275A) above, with S192A, A275F counted along it
SSTR2 (Homo sapiens, UniProt P30874, T194A), sequence (P30874 whole entry T194A): as the sequence (P30874 whole entry F275A) above, with T194A, A275F counted along it
T15 sequence (P30874 whole entry Y205W): as the sequence (P30874 whole entry F275A) above, with Y205W, A275F counted along it
T10 sequence (P30874 whole entry N276A): as the sequence (P30874 whole entry F275A) above, with A275F, N276A counted along it

As to `CC(=O)N[C@@H](Cc1ccc([N+](=O)[O-])cc1)C(=O)N[C@@H]1CSSC[C@@H](C(=O)N[C@H](Cc2ccc(O)cc2)C(N)=O)NC(=O)[C@H]([C@@H](C)O)NC(=O)[C@H](CCCCN)NC(=O)[C@@H](Cc2c[nH]c3ccccc23)NC(=O)[C@H](Cc2ccc(O)cc2)NC1=O` [CYN 154806], the IC50 on SSTR2 [1] was 21.9 nM; at SSTR2 [2], 8.13 nM; on SSTR2 [3], 135 nM; at SSTR2 [5], 23.4 nM; at SSTR2 [6], 3.55 nM; on SSTR2 [8] it was 21.9 nM. The figures for the concentration for half-maximal inhibition (IC50) on SSTR2 [9], at SSTR2 [10] and on SSTR2 [11] were 20.4 nM, 4.37 nM and 2.75 nM, respectively. Also, the Emax at SSTR2 [1] was 69 ± 7%; on SSTR2 [2] (CHO-K1, read-out: Span), 96 ± 8%; at SSTR2 [3], 25 ± 4%; on SSTR2 [4], 15 ± 5%; on SSTR2 [5] it was 21 ± 6%; on SSTR2 [6] (CHO-K1, read-out: Span), 62 ± 6%. For the same compound, the Emax on SSTR2 [7] was 20 ± 2%; on SSTR2 [8], 36 ± 6%; on SSTR2 [9], 24 ± 5%; on SSTR2 [10] it was 100 ± 6%; on SSTR2 [11] (CHO-K1, read-out: Span), 145 ± 9%.

Take `C[C@@H](O)[C@@H]1NC(=O)[C@H](CCCCN)NC(=O)[C@@H](Cc2c[nH]c3ccccc23)NC(=O)[C@H](Cc2ccccc2)NC(=O)[C@@H](NC(=O)[C@H](N)Cc2ccccc2)CSSC[C@@H](C(=O)N[C@H](CO)[C@@H](C)O)NC1=O` [Octreotide]: the Emax worked out at 101 ± 7% at SSTR2 [12]; 147 ± 12% at SSTR2 [13]; 125 ± 7% on SSTR2 [14]; 134 ± 17% on SSTR2 [15]; 16 ± 4% on SSTR2 [16]; 123 ± 10% on SSTR2 [17]. Besides, the Emax at SSTR2 [18] stood at 30 ± 5%; at SSTR2 [19] it was 100 ± 4%; at SSTR2 [20] it was 90 ± 10%; on SSTR2 [21], 128 ± 8%; at SSTR2 [22], 103 ± 8%; at SSTR2 [23] it was 75 ± 9%. For the same compound, the Emax was 146 ± 13% on SSTR2 [24]; 127 ± 4% at SSTR2 [25]; 58 ± 8% on SSTR2 [26]; 47 ± 9% at SSTR2 [27]; 97 ± 10% on SSTR2 [28]; 72 ± 8% at SSTR2 [29]. For the same compound, the Emax on SSTR2 [30] came to 60 ± 5%; at SSTR2 [1], 51 ± 4%; on SSTR2 [3], 16 ± 8%; on SSTR2 [4], 18 ± 7%; at SSTR2 [5], 26 ± 6%; on SSTR2 [7], 16 ± 7%. Besides, the Emax on SSTR2 [8] stood at 28 ± 9%; on SSTR2 [9] it was 27 ± 4%; on SSTR2 [10] it was 100 ± 7%.
